In US4022832A, “2-Aminoacetamido-α-phenylbenzylideneaminoalkanol derivatives and process for the preparation thereof” (Sankyo Company Limited, priority 1975, dated 1977):

Tests used:
Format in all cases: in vivo
mice [1] = test: Anti-bemegride convulsant effect; details: Mus musculus, po, P.O., 1 hour before 30mg/kg bemegride s.c., observed for 30 minutes, Litchfield and Wilcoxon
Procedure: (1) Anti-bemegride convulsant effect
One hour after oral administration of the test compound, 30mg/kg of bemegride is subcutaneously injected and the anti-convulsant activity of the compound is observed for 30 minutes.
(§1) (4) Calculation of ED50 values
(§2) The values are calculated according to the method of Litchfield and Wilcoxon [J. Pharmcol. Exp. Therap., 96, 99 (1949)].

mice [2] = test: Anti-electroshock convulsant effect; details: Mus musculus, po, P.O., 1 hour before electroshock (1000V, 12.5mA, 0.2sec.) through both corneas, Litchfield and Wilcoxon
Procedure: (2) Anti-electroshock convulsant effect
One hour after oral administration of the test compound, an electroshock (1000V, 12.5mA, 0.2sec.) is applied through both corneas and anti-convulsant activity of the compound is observed.
as §1, §2

mice [3] = test: Potentiation of anesthesia (thiopental); details: Mus musculus, po, P.O., 1 hour before 30mg/kg thiopental i.v., dose prolonging loss of righting reflex twice that of thiopental only, Litchfield and Wilcoxon
Procedure: (3) Potentiation of anesthesia
One hour after oral administration of the test compound, 30mg/kg of thiopental is intravenously injected, and the dose is determined which prolongs the duration of loss of the righting reflex twice that of the group administered only with thiopental.
as §1, §2

SMILES | ED50 (mice [1]) [mg/kg] | ED50 (mice [2]) [mg/kg] | ED50 (mice [3]) [mg/kg]
NCC(=O)Nc1ccc(Br)cc1C(=NCCO)c1ccccc1F [2-{[2-Aminoacetamido-5-bromo-α -(2-fluorophenyl)benzylidene]amino}ethanol] | 0.31 | 8 | 2.9
CNC1=Nc2ccc(Cl)cc2C(c2ccccc2)=[N+]([O-])C1 [Chlordiazepoxide] | 2.7 | 27 | 12
